# Experimental data from US12404262B2 (priority 2021, dated 2025).
# Conditions: 1.0% DMSO, 24-hour incubation at ambient temperature, maximum theoretical 100 μM; for pH 2 solubility: 0.1N HCl, first value of the cell; for pH 7 solubility: 1×PBS buffer (pH 7.4), second value of the cell
pH 2 solubility [μM],pH 7 solubility [μM],Structure (SMILES)
1,4,"C[C@H](O)CNC(=O)N(c1nn(CC(F)(F)F)c2c(-c3ccc(C#CC(C)(C)S(C)(=O)=O)nc3[C@H](Cc3cc(F)cc(F)c3)NC(=O)Cn3nc(C(F)(F)F)c4c3C(F)(F)[C@@H]3C[C@H]43)ccc(Cl)c12)S(C)(=O)=O [Compound 34, N—((S)-1-(3-(4-chloro-3-(N—(((S)-2-hydroxypropyl)carbamoyl)methylsulfonamido)-1-(2,2,2-trifluoroethyl)-1H-indazol-7-yl)-6-(3-methyl-3-(methylsulfonyl)but-1-yn-1-yl)pyridin-2-yl)-2-(3,5-difluorophenyl)ethyl)-2-((3bS,4aR)-5,5-difluoro-3-(trifluoromethyl)-3b,4,4a,5-tetrahydro-1H-cyclopropa[3,4]cyclopenta[1,2-c]pyrazol-1-yl)acetamide]"
1,14,"C[C@@H](CNC(=O)N(c1nn(CC(F)(F)F)c2c(-c3ccc(C#CC(C)(C)S(C)(=O)=O)nc3[C@H](Cc3cc(F)cc(F)c3)NC(=O)Cn3nc(C(F)(F)F)c4c3C(F)(F)[C@@H]3C[C@H]43)ccc(Cl)c12)S(C)(=O)=O)OP(=O)(O)O [Compound 35, (S)-1-(3-(4-chloro-7-(2-((S)-1-(2-((3bS,4aR)-5,5-difluoro-3-(trifluoromethyl)-3b,4,4a,5-tetrahydro-1H-cyclopropa[3,4]cyclopenta[1,2-c]pyrazol-1-yl)acetamido)-2-(3,5-difluorophenyl)ethyl)-6-(3-methyl-3-(methylsulfonyl)but-1-yn-1-yl)pyridin-3-yl)-1-(2,2,2-trifluoroethyl)-1H-indazol-3-yl)-3-(methylsulfonyl)ureido)propan-2-yl dihydrogen phosphate]"
1,5,"CC(C)(C#Cc1ccc(-c2ccc(Cl)c3c(N(C(=O)NC(CO)CO)S(C)(=O)=O)nn(CC(F)(F)F)c23)c([C@H](Cc2cc(F)cc(F)c2)NC(=O)Cn2nc(C(F)(F)F)c3c2C(F)(F)[C@@H]2C[C@H]32)n1)S(C)(=O)=O [Compound 36, N—((S)-1-(3-(4-chloro-3-(N-((1,3-dihydroxypropan-2-yl)carbamoyl)methylsulfonamido)-1-(2,2,2-trifluoroethyl)-1H-indazol-7-yl)-6-(3-methyl-3-(methylsulfonyl)but-1-yn-1-yl)pyridin-2-yl)-2-(3,5-difluorophenyl)ethyl)-2-((3bS,4aR)-5,5-difluoro-3-(trifluoromethyl)-3b,4,4a,5-tetrahydro-1H-cyclopropa[3,4]cyclopenta[1,2-c]pyrazol-1-yl)acetamide]"
3,18,"CC(C)(C#Cc1ccc(-c2ccc(Cl)c3c(N(C(=O)NC(COC(=O)C(=O)O)COC(=O)C(=O)O)S(C)(=O)=O)nn(CC(F)(F)F)c23)c([C@H](Cc2cc(F)cc(F)c2)NC(=O)Cn2nc(C(F)(F)F)c3c2C(F)(F)[C@@H]2C[C@H]32)n1)S(C)(=O)=O [Compound 37, 2,2′-((2-(3-(4-chloro-7-(2-((S)-1-(2-((3bS,4aR)-5,5-difluoro-3-(trifluoromethyl)-3b,4,4a,5-tetrahydro-1H-cyclopropa[3,4]cyclopenta[1,2-c]pyrazol-1-yl)acetamido)-2-(3,5-difluorophenyl)ethyl)-6-(3-methyl-3-(methylsulfonyl)but-1-yn-1-yl)pyridin-3-yl)-1-(2,2,2-trifluoroethyl)-1H-indazol-3-yl)-3-(methylsulfonyl)ureido)propane-1,3-diyl)bis(oxy))bis(2-oxoacetic acid)]"
